Measured values: patent publication US11230526B1, “Cylcoalkenyl derivatives useful as agonists of the GPR120 and/or GPR40 receptors” (Janssen Pharmaceutica NV, priority 2018, dated 2022)
pEC50: −log10 of the molar value.

What was measured:
[1] = target: T1, Human GPR120 short form (Homo sapiens, UniProt Q5NUL3); test: Human GPR120 calcium flux assay, Procedure Calcium B (4200 cells/well); type: cell-based
T1 construct: expressed in transfected cells
T1 sequence (Q5NUL3 1-361): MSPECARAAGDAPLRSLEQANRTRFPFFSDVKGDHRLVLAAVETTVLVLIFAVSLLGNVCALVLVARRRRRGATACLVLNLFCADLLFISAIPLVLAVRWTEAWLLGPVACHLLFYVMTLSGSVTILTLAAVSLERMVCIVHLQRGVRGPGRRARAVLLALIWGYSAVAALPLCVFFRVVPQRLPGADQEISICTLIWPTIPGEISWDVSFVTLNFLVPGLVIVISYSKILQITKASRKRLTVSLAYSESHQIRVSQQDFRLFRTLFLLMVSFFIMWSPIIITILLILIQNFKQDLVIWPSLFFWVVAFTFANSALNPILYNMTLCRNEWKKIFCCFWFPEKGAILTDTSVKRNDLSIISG
In short: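 HEK293 cells stably expressing human GPR120 (NM_001195755.1), 4200 cells/well, starved 1 h and loaded with Fluo-4 NW plus probenecid. Ligand-evoked calcium flux read on FLIPR for 300 s after a 10 s baseline. RFU = Fmax−Fmin; EC50 from four-parameter concentration-response fit.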

[2] = target: T2, human GPR40 (Homo sapiens, UniProt O14842); test: GPR40 calcium flux assay, human GPR40; type: cell-based; details: HEK293 cells stably expressing GPR40; table does not say human or rat
T2 construct: expressed in transfected cells
In short: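 Cells preincubated 1 h at 37° C. in HBSS, 20 mM HEPES, 0.1% BSA, then Fluo 8 calcium dye 30 min at 37° C. and 15 min at room temperature.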

T2 sequence (O14842 whole entry): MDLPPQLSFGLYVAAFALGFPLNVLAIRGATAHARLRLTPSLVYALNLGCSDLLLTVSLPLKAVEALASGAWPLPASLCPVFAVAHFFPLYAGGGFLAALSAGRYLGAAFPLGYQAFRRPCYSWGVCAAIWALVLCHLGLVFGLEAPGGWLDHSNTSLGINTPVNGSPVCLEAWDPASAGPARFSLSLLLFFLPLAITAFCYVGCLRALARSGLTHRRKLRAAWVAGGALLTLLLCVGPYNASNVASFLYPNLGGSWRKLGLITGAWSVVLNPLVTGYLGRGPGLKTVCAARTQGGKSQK

SMILES | pEC50 [1] | pEC50 [2]
N#Cc1cc(OCC2=C(c3ccc(F)cc3)CC(F)(F)C2)ccc1CCC(=O)O [Compound 207, 3-[2-cyano-4-[[4,4-difluoro-2-(4-fluorophenyl)cyclopenten-1-yl]methoxy]phenyl]Propanoic Acid] | 5.68 | 5.92
O=C(O)CCc1ccc(OCC2=C(Cc3ccc(Cl)cc3)CCC2)cc1Cl [Compound 356, 3-[2-chloro-4-[[2-[(4-chlorophenyl)methyl]cyclopenten-1-yl]methoxy]phenyl]Propanoic Acid] | 5.60 | 7.17
COc1cc(C2=C(COc3ccc(CCC(=O)O)cc3)CCC2)ccc1C [Compound 261] | 5.81 | 5.79
C=C(Br)c1cc(OCC2=C(C3CCCC3)CCC2)ccc1CCC(=O)O [Compound 448, 3-[2-(1-bromovinyl)-4-[(2-cyclopentylcyclopenten-1-yl)methoxy]phenyl]Propanoic Acid] | < 5.30 | 5.69
CCCC1=C(COc2ccc(CCC(=O)O)cc2)CCCC1 [Compound 589, 3-[4-[(2-propylcyclohexen-1-yl)methoxy]phenyl]Propanoic Acid] | 5.50 | 5.62
Cc1cc(OCC2=C(c3ccc(F)cc3)CCC2)c(F)cc1CCC(=O)O [Compound 304, 3-[5-fluoro-4-[[2-(4-fluorophenyl)cyclopenten-1-yl]methoxy]-2-methyl-phenyl]Propanoic Acid] | 6.30 | 5.96
O=C(O)CCc1ccc(OCC2=C(C3CCCC3)CCCC2)cc1C(F)(F)F [Compound 603, 3-[4-[(2-cyclopentylcyclohexen-1-yl)methoxy]-2-(trifluoromethyl)phenyl]Propanoic Acid] | 5.71 | 6.73
O=C(O)CCc1ccc(OCC2=C(C3CCC4CC43)CCC2)cc1C(F)(F)F (stereo not shown) [Compound 456, 3-[4-[[2-(4-bicyclo[3.1.0]hexanyl)cyclopenten-1-yl]methoxy]-2-(trifluoromethyl)phenyl]Propanoic Acid] | 6.03 | 7.38
COC1CCC(c2ccc(C)cc2)=C(COc2ccc(CCC(=O)O)cc2)C1 (stereo not shown) [Compound 574, 3-[4-[[5-methoxy-2-(p-tolyl)cyclohexen-1-yl]methoxy]phenyl]Propanoic Acid] | 5.67 | 5.36
Cc1cc(CCC(=O)O)cc(Cl)c1OCC1=C(c2ccc(F)cc2)CCC1 [Compound 236, 3-[3-chloro-4-[[2-(4-fluorophenyl)cyclopenten-1-yl]methoxy]-5-methyl-phenyl]Propanoic Acid] | 5.90 | < 5.30
Cc1ccc(C2=C(COc3c(F)cc(CCC(=O)O)cc3F)CCC2)o1 [Compound 212, 3-[3,5-difluoro-4-[[2-(5-methyl-2-furyl)cyclopenten-1-yl]methoxy]phenyl]Propanoic Acid] | < 5.30 | < 5.30
CC1CCC(COc2ccc(CCC(=O)O)cc2)=C1c1ccccc1 (stereo not shown) [Compound 321, 3-[4-[(3-methyl-2-phenyl-cyclopenten-1-yl)methoxy]phenyl]Propanoic Acid] | 6.13 | 5.58
COc1ccc(C2=C(COc3cc(C)c(CCC(=O)O)cc3F)CCC2)c(C)c1 [Compound 278, 3-[5-fluoro-4-[[2-(4-methoxy-2-methyl-phenyl)cyclopenten-1-yl]methoxy]-2-methyl-phenyl]Propanoic Acid] | < 5.30 | 6.52
O=C(O)CCc1ccc(OCC2=C(c3ccccc3Cl)CCC2)cc1C(F)(F)F [Compound 313, 3-[4-[[2-(2-chlorophenyl)cyclopenten-1-yl]methoxy]-2-(trifluoromethyl)phenyl]Propanoic Acid] | 6.07 | 6.72
O=C(O)CCc1ccc(OCC2=C(C3CCC3)CCC2)cc1 [Compound 397, 3-[4-[(2-cyclobutylcyclopenten-1-yl)methoxy]phenyl]Propanoic Acid] | 6.23 | 6.38
O=C(O)CCc1ccc(OCC2=C(C3CCC3)CCC2)cc1C(F)(F)F [Compound 399, 3-[4-[(2-cyclobutylcyclopenten-1-yl)methoxy]-2-(trifluoromethyl)phenyl]Propanoic Acid] | 6.17 | 7.82
Cc1cc(OCC2=C(Cc3cccc(F)c3)CCC2)c(F)cc1CCC(=O)O [Compound 363, 3-[5-fluoro-4-[[2-[(3-fluorophenyl)methyl]cyclopenten-1-yl]methoxy]-2-methyl-phenyl]Propanoic Acid] | < 5.30 | 5.77
CC1CCC(c2ccccc2)=C1COc1ccc(CCC(=O)O)c(Cl)c1 (stereo not shown) [Compound 334, 3-[2-chloro-4-[(5-methyl-2-phenyl-cyclopenten-1-yl)methoxy]phenyl]Propanoic Acid] | 5.76 | 5.67
CCC1CCC(COc2ccc(CCC(=O)O)c(C)c2C)=C1c1ccc(Cl)cc1 (stereo not shown) [Compound 6, 3-[4-[[2-(4-chlorophenyl)-3-ethyl-cyclopenten-1-yl]methoxy]-2,3-dimethyl-phenyl]Propanoic Acid] | < 5.30 | < 5.30
CC(C)(C)CC1=C(COc2ccc(CCC(=O)O)c(C(F)(F)F)c2)CCC1 [Compound 387, 3-[4-[[2-(2,2-dimethylpropyl)cyclopenten-1-yl]methoxy]-2-(trifluoromethyl)phenyl]Propanoic Acid] | < 5.30 | 7.15

Continued by rising pEC50 [1], values first:

pEC50 [1] | pEC50 [2] | SMILES
6.31 | < 5.30 | O=C(O)CCc1cc(F)c(OCC2=C(Cc3ccccc3)CCC2)c(F)c1 [Compound 330, 3-[4-[(2-benzylcyclopenten-1-yl)methoxy]-3,5-difluoro-phenyl]Propanoic Acid]
6.37 | 6.23 | O=C(O)CCc1ccc(OCC2=C(c3cccc(F)c3)CCC2)cc1Cl [Compound 297, 3-[2-chloro-4-[[2-(3-fluorophenyl)cyclopenten-1-yl]methoxy]phenyl]Propanoic Acid]
6.44 | 6.73 | O=C(O)CCc1ccc(OCC2=C(c3ccc(Cl)cc3)CC(F)(F)C2)cc1C(F)(F)F [Compound 248, 3-[4-[[2-(4-chlorophenyl)-4,4-difluoro-cyclopenten-1-yl]methoxy]-2-(trifluoromethyl)phenyl]Propanoic Acid]
6.52 | 6.57 | O=C(O)CCc1ccc(OCC2=C(C3CCCC3)CCC(F)(F)CC2)cc1F [Compound 610, 3-[4-[(2-cyclopentyl-5,5-difluoro-cyclohepten-1-yl)methoxy]-2-fluoro-phenyl]Propanoic Acid]
6.57 | 7.21 | CCc1cc(OCC2=C(C3CCCC3)CCC2)ccc1CCC(=O)O [Compound 423, 3-[4-[(2-cyclopentylcyclopenten-1-yl)methoxy]-2-ethyl-phenyl]Propanoic Acid]
6.63 | 6.45 | Cc1ccc(C2=C(COc3ccc(CCC(=O)O)c(C(F)(F)F)c3)CCC2)c(F)c1 [Compound 283, 3-[4-[[2-(2-fluoro-4-methyl-phenyl)cyclopenten-1-yl]methoxy]-2-(trifluoromethyl)phenyl]Propanoic Acid]
6.65 | 5.85 | Cc1cc(OCC2=C(c3ccc(Br)cc3)CC(F)(F)C2)c(F)cc1CCC(=O)O [Compound 392, 3-[4-[[2-(4-bromophenyl)-4,4-difluoro-cyclopenten-1-yl]methoxy]-5-fluoro-2-methyl-phenyl]Propanoic Acid]
6.70 | 7.09 | O=C(O)CCc1ccc(OCC2=C(C3CCCC3)CCC2)cc1F [Compound 426, 3-[4-[(2-cyclopentylcyclopenten-1-yl)methoxy]-2-fluoro-phenyl]Propanoic Acid]
6.72 | 5.83 | Cc1ccc(C2=C(COc3cc(C)c(CCC(=O)O)cc3F)CCC2)c(F)c1 [Compound 270, 3-[5-fluoro-4-[[2-(2-fluoro-4-methyl-phenyl)cyclopenten-1-yl]methoxy]-2-methyl-phenyl]Propanoic Acid]
6.73 | < 5.30 | Cc1cc(CCC(=O)O)ccc1OCC1=C(c2ccco2)CCC1 [Compound 208, 3-[4-[[2-(2-furyl)cyclopenten-1-yl]methoxy]-3-methyl-phenyl]Propanoic Acid]
6.75 | 7.32 | Cc1cc(OCC2=C(C3CCCC3)CCC2)ccc1CCC(=O)O [Compound 422, 3-[4-[(2-cyclopentylcyclopenten-1-yl)methoxy]-2-methyl-phenyl]Propanoic Acid]
6.84 | 5.49 | O=C(O)CCc1ccc(OCC2=C(C3CCCC3)CCC2)c(F)c1 [Compound 425, 3-[4-[(2-cyclopentylcyclopenten-1-yl)methoxy]-3-fluoro-phenyl]Propanoic Acid]
7.06 | 6.02 | Cc1cc(OCC2=C(c3ccc(Cl)cc3)CC(F)(F)C2)c(F)cc1CCC(=O)O [Compound 375]
7.23 | < 5.00 | Cc1c(CCC(=O)O)ccc(OCC2=C(C3CCCC3)CCC2)c1F [Compound 431, 3-[4-[(2-cyclopentylcyclopenten-1-yl)methoxy]-3-fluoro-2-methyl-phenyl]Propanoic Acid]
7.36 | < 5.00 | Cc1c(CCC(=O)O)ccc(OCC2=C(C3CCCC3)CCC2)c1C [Compound 432, 3-[4-[(2-cyclopentylcyclopenten-1-yl)methoxy]-2,3-dimethyl-phenyl]Propanoic Acid]
